Measurements from ChEMBL document CHEMBL1201862, “PubChem BioAssay data set” (2004).
Calls of active or inactive are those of the source. Cut-off read from the data, not from the text of the source, for most assays here: actives have a measured EC50 and inactives only a lower limit.

Key:
INS1 = assay: INS-1E survival protection against cytokine death – cell-based, luminescence, retest, dose response (AID 449756); type: functional; conditions: Rattus norvegicus;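 note: cell death triggered by IL-1 beta plus TNF-alpha plus IFN-gamma mixture; protective hits raise ATP signal compared with cytokine alone wells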
[1] = Luminescence Cell-Based Dose Retest to Confirm Inhibitors of Cancer Stem Cells. [Related pubchem assays (depositor defined):AID2717, AID2721]; type: functional; conditions: Homo sapiens
[2] = target: Luciferin 4-monooxygenase (Photinus pyralis, UniProt P08659); assay: inhibition of purified Photinus pyralis luciferase – biochemical, luminescence, dose response (AID 1891)
[3] = alpha-synuclein stem-loop luciferase translation blockers – H4 neuroglioma cells, luminescence, confirmation (AID 1988); type: functional, cell-based
[4] = Luminescence Cell-Based Dose Confirmation HTS to Identify Inhibitors of Platelet Dense Granule Release. [Related pubchem assays: 1663 (Primary HTS), 1678 (Summary of Project)]; type: functional
[5] = Luminescence Cell-Based Dose Response HTS to Identify Inhibitors of 5'UTR Stem-Loop Driven Prion Protein mRNA Translation in H4 Neuroglioblastoma Cells. [Related pubchem assays: 1827 (Project Summary), 1813 (Primary HTS)]; type: functional
[6] = luciferase reporter signal suppression in cells – H4 neuroglioma cells, luminescence, dose response (AID 1990); type: functional, cell-based
[7] = target: T1, Heat shock factor protein 1 (Mus musculus, UniProt P38532); assay: decrease of HSF1-responsive luciferase luminescence – cell-based, NIH3T3, dose retest, confirmation (AID 2382); type: functional;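 note: NIH3T3 fibroblasts with HSF1-driven luciferase reporter stressed by proteasome inhibitor MG132; luminescence from HSF1-driven luciferase expression after 8 hours of MG132 stress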
T1 sequence (P38532 whole entry): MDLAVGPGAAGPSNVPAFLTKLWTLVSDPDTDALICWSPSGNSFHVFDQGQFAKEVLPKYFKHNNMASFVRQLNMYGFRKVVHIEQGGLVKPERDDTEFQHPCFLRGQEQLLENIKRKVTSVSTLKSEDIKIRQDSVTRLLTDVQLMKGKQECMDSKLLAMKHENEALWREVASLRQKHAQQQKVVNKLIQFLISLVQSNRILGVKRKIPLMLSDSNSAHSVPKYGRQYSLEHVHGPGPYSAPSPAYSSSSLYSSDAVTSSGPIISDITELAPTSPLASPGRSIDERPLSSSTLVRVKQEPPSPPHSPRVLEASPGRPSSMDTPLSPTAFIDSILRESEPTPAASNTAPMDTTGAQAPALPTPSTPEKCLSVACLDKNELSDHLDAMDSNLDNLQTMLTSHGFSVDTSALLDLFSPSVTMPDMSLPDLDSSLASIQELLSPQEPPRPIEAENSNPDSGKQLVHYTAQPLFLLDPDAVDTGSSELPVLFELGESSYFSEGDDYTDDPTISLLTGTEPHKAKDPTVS

[8] = target: T2, High affinity choline transporter 1 (Homo sapiens, UniProt Q9GZV3); assay: human choline transporter blockers, potency – cell-based, 5-point CRC, membrane potential dye, dose response (AID 504840); type: functional
T2 sequence (Q9GZV3 whole entry): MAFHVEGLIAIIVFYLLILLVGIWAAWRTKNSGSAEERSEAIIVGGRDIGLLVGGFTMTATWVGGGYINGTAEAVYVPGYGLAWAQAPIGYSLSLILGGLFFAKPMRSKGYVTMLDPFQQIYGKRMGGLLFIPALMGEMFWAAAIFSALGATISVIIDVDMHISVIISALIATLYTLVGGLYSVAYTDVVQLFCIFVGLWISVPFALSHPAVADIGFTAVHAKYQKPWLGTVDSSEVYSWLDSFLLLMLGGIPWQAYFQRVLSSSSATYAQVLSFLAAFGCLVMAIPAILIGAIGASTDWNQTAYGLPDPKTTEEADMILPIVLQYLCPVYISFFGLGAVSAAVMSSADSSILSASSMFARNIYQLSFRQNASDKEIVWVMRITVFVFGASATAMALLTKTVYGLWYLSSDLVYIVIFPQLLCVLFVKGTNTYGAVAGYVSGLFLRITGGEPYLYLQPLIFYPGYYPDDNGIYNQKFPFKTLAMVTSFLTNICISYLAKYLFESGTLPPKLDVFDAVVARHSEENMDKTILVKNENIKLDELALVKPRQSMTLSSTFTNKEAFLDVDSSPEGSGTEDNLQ

Streptokinase A = target: T3, Streptokinase A (Streptococcus pyogenes serotype M1, UniProt P10520); assay: viability-normalized secreted streptokinase activity reduction – plasminogen activation absorbance, OD405, dose response (AID 1914); type: functional, Streptococcus pyogenes M1 GAS;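 note: secreted streptokinase activity via plasminogen activation per viability signal from cell pellet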
T3 sequence (P10520 whole entry): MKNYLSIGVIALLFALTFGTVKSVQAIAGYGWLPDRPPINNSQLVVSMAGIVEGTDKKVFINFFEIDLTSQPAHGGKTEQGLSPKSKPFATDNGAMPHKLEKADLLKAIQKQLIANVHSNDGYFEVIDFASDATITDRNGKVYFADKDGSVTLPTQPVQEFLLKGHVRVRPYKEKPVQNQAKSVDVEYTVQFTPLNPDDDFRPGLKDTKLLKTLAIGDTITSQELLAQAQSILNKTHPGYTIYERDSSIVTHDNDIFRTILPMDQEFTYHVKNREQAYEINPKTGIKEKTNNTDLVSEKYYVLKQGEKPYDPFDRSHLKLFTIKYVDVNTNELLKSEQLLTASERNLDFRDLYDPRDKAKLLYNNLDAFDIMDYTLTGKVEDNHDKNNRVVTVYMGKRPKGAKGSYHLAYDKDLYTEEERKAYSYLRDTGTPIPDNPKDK

[9] = tested on: Streptococcus sp. 'group A'; assay: Streptococcus pyogenes SK(-)GAS viability under kanamycin – luminescence, BacTiterGlo, confirmation, counter-screen for streptokinase expression inhibitor project, dose response (AID 1900); type: functional, organism-based
[10] = target: T4, Carboxy-terminal domain RNA polymerase II polypeptide A small phosphatase 1 (Homo sapiens, UniProt Q9GZU7); assay: CTDSP1 inhibitors, concentration-response, biochemical, absorbance readout, ultra-high-throughput screen actives (AID 540297); type: functional
T4 sequence (Q9GZU7 whole entry): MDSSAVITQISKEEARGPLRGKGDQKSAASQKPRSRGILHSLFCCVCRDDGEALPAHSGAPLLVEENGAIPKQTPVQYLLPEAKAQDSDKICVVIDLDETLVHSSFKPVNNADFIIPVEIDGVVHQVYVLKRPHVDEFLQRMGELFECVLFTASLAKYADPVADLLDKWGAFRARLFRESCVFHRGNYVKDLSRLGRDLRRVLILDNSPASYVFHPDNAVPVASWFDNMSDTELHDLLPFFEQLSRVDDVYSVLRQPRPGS

Streptococcus = assay: GAS UMAA2166 growth inhibition – luminescence, BacTiterGlo, counter-screen for streptokinase expression inhibitor project, dose response (AID 1915); type: functional, organism-based;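 note: potency for reduction of bacterial viability or growth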
Protein skinhead-1 = target: T5, Protein skinhead-1 (Caenorhabditis elegans, UniProt P34707); type: functional
T5 sequence (P34707 whole entry): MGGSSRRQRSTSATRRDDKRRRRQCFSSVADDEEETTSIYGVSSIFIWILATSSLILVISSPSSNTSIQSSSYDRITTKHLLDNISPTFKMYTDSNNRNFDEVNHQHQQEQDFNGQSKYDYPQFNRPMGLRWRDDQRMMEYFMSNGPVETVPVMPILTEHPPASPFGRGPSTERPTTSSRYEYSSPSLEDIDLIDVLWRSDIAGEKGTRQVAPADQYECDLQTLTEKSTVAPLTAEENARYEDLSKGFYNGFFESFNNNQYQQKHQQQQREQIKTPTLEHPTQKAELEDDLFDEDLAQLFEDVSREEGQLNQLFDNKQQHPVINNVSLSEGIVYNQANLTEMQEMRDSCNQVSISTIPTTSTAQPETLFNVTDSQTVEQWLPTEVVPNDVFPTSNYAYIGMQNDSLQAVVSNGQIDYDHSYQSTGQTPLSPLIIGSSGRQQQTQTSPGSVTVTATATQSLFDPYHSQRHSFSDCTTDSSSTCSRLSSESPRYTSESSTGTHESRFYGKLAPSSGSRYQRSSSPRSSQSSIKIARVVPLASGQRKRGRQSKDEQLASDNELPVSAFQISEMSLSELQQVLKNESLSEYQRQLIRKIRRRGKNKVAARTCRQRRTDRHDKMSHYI

H4 = assay: Luminescence Cell-Based Dose Response HTS to Identify Activators of 5'UTR Stem-Loop Driven Prion Protein mRNA Translation in H4 Neuroglioblastoma Cells. [Related pubchem assays: 1829 (Project Summary), 1814 (Primary HTS)]; type: functional; conditions: Homo sapiens
[11] = Luminescence Cell-Based Dose Confirmation HTS to Identify Activators of 5'UTR Stem-Loop Driven Alpha-Synuclein mRNA Translation in H4 Neuroglioblastoma Cells. [Related pubchem assays: 1829 (Project Summary), 1814 (Primary HTS)]; type: functional
[12] = Luminescence Cell-Based Dose Response HTS to Identify Activators of Luciferase Translation or Activity in H4 […] Cells. [Related pubchem assays: 1829 (Project Summary), 1814 (Primary HTS)]; type: functional
[13] = viability of HCT116 lacking mutant beta-catenin – cell-based, human colon tumor, dose response (AID 1045); type: functional;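 note: HCT116 colon tumor cells with beta catenin knocked out; cells exposed to compound for 60 hours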
[14] = viability of PTEN-deleted HCT116 cells – cell-based, HCT116 PTEN knockout, dose response (AID 1047); type: functional;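 note: HCT116 colon tumor cells with PTEN knocked out; cells exposed to compound for 60 hours before readout; potency for loss of cell viability measured by luminescence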
[15] = NIH-3T3 fibroblast cytotoxicity, dose response, cytotoxicity control, cell-based, fluorescence, Alamar Blue, secondary assay (AID 2327); type: functional;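 note: NIH-3T3 mouse fibroblasts cultured with fluconazole at 8 µg/mL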
[16] = fluconazole-exposed Candida albicans growth modulators – fluorescence, retest, confirmation (AID 2467); type: functional, cell-based

Chain of Luciferin 4-monooxygenase (P08659 whole entry): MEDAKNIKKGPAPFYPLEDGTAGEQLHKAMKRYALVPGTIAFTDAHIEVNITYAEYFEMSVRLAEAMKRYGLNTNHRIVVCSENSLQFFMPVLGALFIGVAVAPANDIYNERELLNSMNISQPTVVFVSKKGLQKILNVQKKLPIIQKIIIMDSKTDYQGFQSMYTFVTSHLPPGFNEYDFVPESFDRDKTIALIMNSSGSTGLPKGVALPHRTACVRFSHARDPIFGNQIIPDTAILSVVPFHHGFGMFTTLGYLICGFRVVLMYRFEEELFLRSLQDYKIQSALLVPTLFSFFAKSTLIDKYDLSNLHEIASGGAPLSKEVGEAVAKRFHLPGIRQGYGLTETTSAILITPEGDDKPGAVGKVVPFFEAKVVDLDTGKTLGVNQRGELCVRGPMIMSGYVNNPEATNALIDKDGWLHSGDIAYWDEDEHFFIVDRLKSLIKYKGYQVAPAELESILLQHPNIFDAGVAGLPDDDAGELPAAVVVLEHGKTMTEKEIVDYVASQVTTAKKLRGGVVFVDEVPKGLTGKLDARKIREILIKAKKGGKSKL

CCCCC1CCC(C(=O)N(CC(C)C)c2c(N)n(Cc3ccccc3)c(=O)[nH]c2=O)CC1 (configuration not stated)
AC50 (INS1): 5.82 µM (active)
AC50 [1]: 2.96 µM (active)

Fc1ccc(-c2nnc(NC3=NCCCCC3)o2)cc1
EC50 [2]: 13.9 µM (active)
EC50 [3]: 1.4 µM (active)
EC50 [4]: 2.88 µM (active)
EC50 [5]: 0.751 µM (active)
EC50 [6]: 2.66 µM (active)
EC50 [7]: 16 µM (active)

O=c1c2ccccc2nc(SCc2ccncc2)n1CC1CCCO1 (configuration not stated)
IC50 [8]: 12.9 µM (active)

COc1ccc(Cn2c(C3CCCCC3)nc3c(c(=O)c4ccccc4n3C)c2=O)cc1
EC50 (Streptokinase A): > 150 µM (not active)
EC50 [9]: 6.03 µM (active)
IC50 [10]: 5.55 µM (active)
EC50 (Streptococcus): 6.96 µM (active)

CC1CCN(CC(=O)Nc2cccc(C(=O)Nc3cccc(C(F)(F)F)c3)c2)CC1
IC50 [8]: 12.3 µM (active)
IC50 (Protein skinhead-1): 43.2 µM (active)

CC1=NN(c2ccccc2)C(=O)/C1=C/c1cc2cc(C)ccc2nc1N1CCCCC1
EC50 (H4): > 120 µM (inconclusive)
EC50 [11]: 8.69 µM (active)
EC50 [12]: 17.1 µM (active)
EC50 [13]: 25.2 µM (active)
EC50 [14]: 17.8 µM (active)

O=C(NCCC1=CCCCC1)NC1CCCCC1
EC50 [2]: > 112 µM (not active)
EC50 [4]: > 112 µM (not active)
IC50 (Protein skinhead-1): > 100 µM (inactive)

CC(C)C(=O)Nc1ncc2c(n1)CC(c1cccs1)CC2=O (configuration not stated)
EC50 [2]: > 112 µM (not active)
EC50 [4]: > 112 µM (not active)

C/C(=N\NC(=O)C(C)n1nc(C)c([N+](=O)[O-])c1C)c1ccccc1O (configuration not stated)
AC50 (INS1): 1.93 µM (active)

COc1ccc(C/C(O)=C(\C#N)c2nc3ccccc3s2)cc1
EC50 [15]: 39.5 µM (active)
IC50 [8]: 0.724 µM (active)
EC50 [16]: 0.405 µM (active)

O=C1c2ccccc2C(O)N1CCN1CCOCC1 (configuration not stated)
EC50 [2]: > 112 µM (not active)
EC50 [4]: > 112 µM (not active)

CC1CCN(CC(O)COc2ccc(OCC(O)CN3CCC(C)CC3)cc2)CC1 (configuration not stated)
IC50 [8]: 12.6 µM (active)

COc1cccc(NC(=O)c2cnn(-c3ccccc3)c2C)c1
EC50 [2]: 8.62 µM (active)
EC50 [4]: 20.2 µM (active)

CCOC(=O)c1cccc(Nc2ncnc3ccccc23)c1
IC50 [8]: 14.5 µM (active)

CCCn1nc(NS(=O)(=O)c2ccc(F)cc2)c2cc3ccccc3nc21
EC50 [2]: > 112 µM (not active)
EC50 [4]: > 112 µM (not active)

O=C(N/N=C/c1ccc2c(c1)OCO2)c1ccc(COCC(F)(F)C(F)F)cc1
IC50 [10]: 9.06 µM (active)
AC50 [1]: 1.12 µM (active)

Cc1sc(NC(=O)c2cc(-c3ccc(Cl)cc3)nc3ccccc23)c(C(N)=O)c1C
EC50 [13]: 15.3 µM (active)
EC50 [14]: 17.3 µM (active)

CCCc1cc2c(=O)c(-c3cscn3)c(C(=O)OCC)oc2cc1O
IC50 [8]: 13.8 µM (active)

Cc1cc(C)c(C)c(S(=O)(=O)N[C@@H](C)C(=O)OCc2cc(=O)n3cc(Br)ccc3n2)c1C
IC50 [10]: 7.42 µM (active)

COc1cc(C(=O)Nc2ccc(Br)cc2C(=O)c2ccccc2Cl)cc(OC)c1OC
EC50 [13]: 29 µM (active)
EC50 [14]: 153 µM (active)

Cc1ccc(C)c(OCC(=O)Nc2ccc(S(=O)(=O)Nc3ccccn3)cc2)c1C
IC50 [8]: 7.2 µM (active)

Cc1cccc(N2CC(C)Cn3c2nc2c3c(=O)n(CC(=O)OCc3ccccc3)c(=O)n2C)c1 (configuration not stated)
EC50 [2]: 27.8 µM (active)
EC50 [4]: > 112 µM (not active)

Cc1nn(-c2ccc(F)cc2)c(Cl)c1/C=N/NC(=O)c1cccc(S(=O)(=O)N2CCCC2)c1
IC50 [10]: 10.7 µM (active)

CCn1/c(=N/C(=O)c2ccc(S(=O)(=O)N3CCOCC3)cc2)sc2cccc(OC)c21
AC50 (INS1): 5.66 µM (active)

Cc1ccc(C)c(N2CCN(S(=O)(=O)c3ccc4c(c3)OCCO4)CC2)c1
EC50 [2]: > 112 µM (not active)
EC50 [4]: > 112 µM (not active)
